Laboratory results reported in publication PMC4657098, “A Review of the Updated Pharmacophore for the Alpha 5 GABA(A) Benzodiazepine Receptor Model” (International Journal of Medicinal Chemistry, 2015).
Like-named read-outs stand apart in the source and are kept apart here.

Tests used:
Set-up in all cases: expressed in transfected cells
[1] = target: α5β3γ2 GABAA/BzR (Homo sapiens, UniProt P18507+P31644); experiment: Competition binding to HEK cell membranes, α5β3γ2; conditions: read-out: Ki α5
[2] = target: α3β3γ2 GABAA/BzR (Homo sapiens, UniProt P18507+P34903); experiment: Competition binding to HEK cell membranes, α3β3γ2; conditions: read-out: Ki α3
[3] = target: α1β3γ2 GABAA/BzR (Homo sapiens, UniProt P14867+P18507); experiment: Competition binding to HEK cell membranes, α1β3γ2
[4] = target: α2β3γ2 GABAA/BzR (Homo sapiens, UniProt P18507+P47869); experiment: Competition binding to HEK cell membranes, α2β3γ2; conditions: read-out: Ki α2
[5] = target: α6β3γ2 GABAA/BzR (Homo sapiens, UniProt P18507+Q16445); experiment: Competition binding to HEK cell membranes, α6β3γ2

Compound: C[Si](C)(C)C#Cc1ccc2c(c1)C(c1ccccc1F)=NCC(=O)N2 [JYI-55]
- Ki [1]: 24.8 nM
- Ki [2]: 0.504 nM
- Ki ([3]; read-out: Ki α1): 41.4 nM

Compound: O=C(OCC(F)(F)F)c1ncn2c1CN=C(c1ccccc1F)c1cc(Br)ccc1-2 [JYI-49]
- Ki [4]: 2.38 nM
- Ki [1]: 6.7 nM
- Ki ([5]; read-out: Ki α6): 3390 nM
- Ki ([3]; read-out: Ki α1): 1.87 nM

Compound: COc1ccc2c(c1)C(=O)N(C)Cc1c(C(=O)OC(C)(C)C)ncn1-2 [DM-215]
- Ki [1]: 0.293 nM
- Ki [2]: 7.42 nM
- Ki ([5]; read-out: Ki α6): 8.28 nM
- Ki ([3]; read-out: Ki α1): 6.74 nM

Compound: CN1CCN(C=C2N=C3CN=C(c4ccccc4)c4cc(Br)ccc4N3C2=O)CC1 [PS-1-35]
- Ki [4]: 16 nM
- Ki [2]: 24.4 nM

Compound: C#Cc1ccc2c(c1)C(=O)N1CCC[C@H]1c1c(C(=O)OCC(F)(F)F)ncn1-2 [JYI-15]
- Ki [4]: 812 nM
- Ki [1]: 4.8 nM
- Ki ([5]; read-out: Ki α6): 22 nM
- Ki ([3]; read-out: Ki α1): 205 nM

Compound: O=C1CN=C(c2ccccc2F)c2cc(Br)ccc2N1 [JYI-42]
- Ki [4]: 0.146 nM
- Ki [1]: 0.256 nM
- Ki [2]: 0.278 nM
- Ki ([3]; read-out: Ki α1): 0.257 nM

Compound: CC(C)(C)OC(=O)c1ncn2c1[C@@H]1CCCN1C(=O)c1cc(-c3cccs3)ccc1-2 [JYI-19]
- Ki [4]: 205 nM
- Ki [1]: 34 nM
- Ki ([5]; read-out: Ki α6): 12.7 nM
- Ki ([3]; read-out: Ki α1): 2.18 nM

Compound: CN1Cc2c(C(=O)OC(C)(C)C)ncn2-c2ccc(N3CCCC3)cc2C1=O [DM-139]
- Ki [1]: 9.25 nM
- Ki [2]: 169 nM
- Ki ([5]; read-out: Ki α6): 325 nM
- Ki ([3]; read-out: Ki α1): 5.8 nM

Compound: CCOc1cc2c(cn1)[nH]c1ccccc12 [3 EBC, 3-Ethoxy-beta-carboline]
- Ki [1]: 826 nM
- Ki [2]: 28.2 nM
- Ki ([5]; Ki α6): 1000 nM

Compound: COCc1ncn2c1CN(C)C(=O)c1cc(Cl)ccc1-2 [SH-TSC-1]
- Ki [4]: 180 nM
- Ki [1]: 6.18 nM
- Ki [2]: 328 nM
- Ki ([3]; read-out: Ki α1): 362 nM

Compound: C=Cc1ccc2c(c1)C(=O)N1CCC[C@H]1c1c(C(=O)OCC(F)(F)F)ncn1-2 [JYI-12]
- Ki [4]: 39 nM
- Ki [1]: 4.5 nM
- Ki ([5]; read-out: Ki α6): 6.8 nM
- Ki ([3]; read-out: Ki α1): 91 nM

Compound: C#Cc1ccc2c(c1)C(c1ccccc1F)=NCc1nnc(C)n1-2 [JYI-70]
- Ki [4]: 2.1 nM
- Ki [1]: 0.56 nM
- Ki ([5]; read-out: Ki α6): 5000 nM
- Ki ([3]; read-out: Ki α1): 6.3 nM

Compound: COc1ccc(-n2nc3c4cc(Cl)ccc4[nH]cc-3c2=O)cc1 [PZII-028]
- Ki [1]: 0.32 nM
- Ki [2]: 0.2 nM
- Ki ([5]; read-out: Ki α6): 1.9 nM
- Ki ([3]; read-out: Ki α1): 0.2 nM

Compound: O=[N+]([O-])c1ccc2[nH]c3cnc([N+](=O)[O-])cc3c2c1 [EDC-I-071]
- Ki [4]: 83.1 nM
- Ki [1]: 314 nM
- Ki ([5]; read-out: Ki α6): 5000 nM
- Ki ([3]; read-out: Ki α1): 12.9 nM

Compound: Cc1nnc2n1-c1ccc(Br)cc1C(c1ccccc1F)=NC2 [JYI-57]
- Ki [4]: 0.076 nM
- Ki [1]: 0.036 nM
- Ki [2]: 0.131 nM
- Ki ([3]; read-out: Ki α1): 0.076 nM

Compound: CCOC(=O)c1ncc2[nH]c3ccc(OCc4cccc5ccccc45)cc3c2c1COC [EDC-II-044]
- Ki [1]: 323 nM
- Ki [2]: 293 nM
- Ki ([5]; read-out: Ki α6): 1000 nM
- Ki ([3]; read-out: Ki α1): 15.4 nM

Compound: C[Si](C)(C)C#Cc1ccc2c(c1)C(=O)N1CCC[C@H]1c1c(C(=O)OCC(F)(F)F)ncn1-2 [JYI-11]
- Ki [4]: 5000 nM
- Ki [1]: 648 nM
- Ki ([5]; read-out: Ki α6): 3.97 nM
- Ki ([3]; read-out: Ki α1): 5000 nM

Compound: C#Cc1ccc2c(c1)C(c1ccccc1F)=NCc1c(C(=O)OCC(F)(F)F)ncn1-2 [JYI-59 (C22H13N3O2F4)]
- Ki [4]: 2.6 nM
- Ki ([5]; read-out: Ki α6): 5000 nM

Compound: C#Cc1ccc2c(c1)C(c1cccs1)=NCC(=O)N2C [JC222]
- Ki [4]: 45.1 nM
- Ki [1]: 17.6 nM
- Ki ([3]; read-out: Ki α1): 86.7 nM

Compound: CN1Cc2c(C(=O)OC(C)(C)C)ncn2-c2ccc(O)cc2C1=O [DM-239]
- Ki [1]: 0.14 nM
- Ki [2]: 0.53 nM
- Ki ([5]; read-out: Ki α6): 6.89 nM
- Ki ([3]; read-out: Ki α1): 1.5 nM

Compound: C#Cc1ccc2[nH]c3cnc(C(=O)OC(C)(C)C)cc3c2c1 [WY-TSC-4]
- Ki [1]: 51 nM
- Ki [2]: 1.63 nM

Compound: C#Cc1ccc2c(c1)C(c1ccccc1F)=NCC(=O)N2 [JYI-60 (C17H11N2OF)]
- Ki [1]: 1.7 nM
- Ki [2]: 4.3 nM
- Ki ([5]; read-out: Ki α6): 5000 nM

Compound: O=C1CN=C(c2cccs2)c2cc(Br)ccc2N1 [JC184]
- Ki [4]: 10.5 nM
- Ki [1]: 6.71 nM
- Ki ([3]; read-out: Ki α1): 9.61 nM

Compound: O=C(OCC(F)(F)F)c1ncn2c1[C@@H]1CCCN1C(=O)c1ccccc1-2 [JYI-14]
- Ki [4]: 25 nM
- Ki [1]: 13 nM
- Ki ([5]; read-out: Ki α6): 565 nM
- Ki ([3]; read-out: Ki α1): 32 nM

Compound: C#Cc1ccc2c(c1)C(c1ccccc1)=NCC(NC)=N2 [Hz148]
- Ki [4]: 5000 nM
- Ki [1]: 256 nM
- Ki ([5]; read-out: Ki α6): 5000 nM
- Ki ([3]; read-out: Ki α1): 11 nM

Compound: O=C(OCC(F)(F)F)c1ncn2c1C1CCCN1C(=O)c1cc(-c3ccco3)ccc1-2 (stereo not shown) [JYI-13]
- Ki [4]: 63.7 nM
- Ki [1]: 16 nM
- Ki ([5]; read-out: Ki α6): 8.38 nM
- Ki ([3]; read-out: Ki α1): 5000 nM

Compound: CCOC(=O)c1ncn2c1CN=C(c1ccccc1F)c1cc(-c3ccco3)ccc1-2 [JYI-48]
- Ki [4]: 90.7 nM
- Ki [1]: 31.3 nM
- Ki [2]: 12.8 nM
- Ki ([3]; read-out: Ki α1): 75.6 nM

Compound: C=Cc1ccc2c(c1)C(=O)N1CCC[C@H]1c1c(C(=O)OC(C)(C)C)ncn1-2 [JYI-04]
- Ki [4]: 16 nM
- Ki [1]: 0.51 nM
- Ki ([5]; read-out: Ki α6): 1.57 nM
- Ki ([3]; read-out: Ki α1): 28.3 nM

Compound: O=C1C2C=Nc3ccccc3C2=NN1c1ccc(Cl)cc1 (stereo not shown) [CGS9896, reference compound]
- Ki ([5]; Ki α6): 181 nM
- Ki ([3]; Ki α1): 0.28 nM

Compound: C#Cc1ccc2c(c1)C(c1ccccc1F)=N[C@@H](C)c1c(C(=O)OCC)ncn1-2 [SH-O53-S-CH3-2′F]
- Ki ([5]; Ki α6): 5000 nM

Compound: S=C=Nc1ccc2[nH]c3cnc(N=C=S)cc3c2c1 [EDC-I-093]
- Ki [4]: 423 nM
- Ki [1]: 2910 nM
- Ki ([5]; read-out: Ki α6): 5000 nM
- Ki ([3]; read-out: Ki α1): 13.6 nM

Compound: O=C(OCC(F)(F)F)c1ncn2c1C1CCCN1C(=O)c1cc(Br)ccc1-2 (stereo not shown) [JYI-10]
- Ki [4]: 368 nM
- Ki [1]: 12.3 nM
- Ki ([5]; read-out: Ki α6): 23 nM
- Ki ([3]; read-out: Ki α1): 5000 nM

Compound: C#Cc1ccc2c(c1)C(c1cccs1)=NCC(=O)N2 [JC208]
- Ki [4]: 18.9 nM
- Ki [1]: 5.04 nM
- Ki ([3]; read-out: Ki α1): 22.4 nM

Compound: CC(C)(C)OC(=O)c1cc2c(cn1)[nH]c1ccccc12 [SH-TSC-2]
- Ki [4]: 0.0419 nM
- Ki [1]: 69.3 nM
- Ki [2]: 0.035 nM

Compound: Cc1nnc2n1-c1ccc(Br)cc1C(c1ccccc1)=NC2 [XLi268]
- Ki [4]: 0.686 nM
- Ki [1]: 0.624 nM
- Ki ([3]; read-out: Ki α1): 2.81 nM

Compound: O=C(O)c1ncn2c1CN=C(c1ccccc1)c1cc(Br)ccc1-2 [DM-III-01]
- Ki [4]: 12 nM
- Ki [1]: 4.73 nM

Compound: O=C1CN=C(c2ccccc2Cl)c2cc(Br)ccc2N1 [DM-II-72]
- Ki [4]: 1.37 nM
- Ki [1]: 2.02 nM

Compound: Cc1nnc2n1-c1ccc(C#C[Si](C)(C)C)cc1C(c1ccccc1F)=NC2 [JYI-72]
- Ki [4]: 18.5 nM
- Ki [1]: 11.5 nM
- Ki ([3]; read-out: Ki α1): 48.5 nM

Compound: O=C(O)c1ncn2c1CN=C(c1ccccc1F)c1cc(Br)ccc1-2 [JYI-47]
- Ki [4]: 2.28 nM
- Ki [1]: 0.427 nM
- Ki [2]: 0.511 nM
- Ki ([3]; read-out: Ki α1): 2.76 nM

Compound: C#Cc1ccc2c(c1)C(=O)N1CCCC1c1c(C(=O)OC(C)(C)C)ncn1-2 (stereo not shown) [JYI-03]
- Ki [4]: 107 nM
- Ki [1]: 0.954 nM
- Ki ([5]; read-out: Ki α6): 3.34 nM
- Ki ([3]; read-out: Ki α1): 185 nM

Compound: COc1ccc(-n2nc3c4ccccc4[nH]cc-3c2=O)cc1 [CGS9895, reference compound]
- Ki ([5]; read-out: Ki α6): 9.3 nM
- Ki ([3]; read-out: Ki α1): 0.21 nM

Compound: CN(C)C=C1N=C2CN=C(c3ccccc3)c3cc(Br)ccc3N2C1=O [PS-1-34B]
- Ki [4]: 4.2 nM
- Ki [2]: 3.93 nM

Compound: C#Cc1ccc2c(c1)C(c1ccccc1F)=NCc1c(C(=O)NC)ncn1-2 [HJ-I-037]
- Ki [4]: 8.13 nM
- Ki [1]: 0.818 nM
- Ki [2]: 28.3 nM
- Ki ([3]; read-out: Ki α1): 15.1 nM

Compound: C#Cc1ccc2c(c1)C(c1ccccc1Cl)=NCC(=O)N2C [XLi352]
- Ki [4]: 0.991 nM
- Ki [1]: 1.96 nM
- Ki ([3]; read-out: Ki α1): 1.56 nM

Compound: CCOC(=O)c1ncn2c1CN=C(c1ccccc1F)c1cc(Br)ccc1-2 [JYI-32]
- Ki [4]: 4.96 nM
- Ki [1]: 2.92 nM
- Ki ([5]; read-out: Ki α6): 52.2 nM
- Ki ([3]; read-out: Ki α1): 3.07 nM
